In patent publication US20260209177A1, “1-DEOXYNOJIRIMYCIN DERIVATIVE AND USE THEREOF” (ZHEJIANG UNIVERSITY, priority 2022, published 2026):

Legend:
[1] = tested on: C57BL/6J mice with Ang II-induced myocardial hypertrophy; test: Heart weight/body weight of Ang II mice; assay type: in vivo, mouse; settings: 10 mg/kg/d intraperitoneal, 4 weeks, FIG. 23
Experimental: (§1) Model construction was performed by adopting C57BL/6J wild-type mice with subcutaneous implantation and perfusion of angiotensin II (AngII)/normal saline (Saline) through an Alzet Osmotic Pump 2004. Relevant statistical results were obtained after continuous feeding, modeling and administration for 4 weeks.
(§2) Administration method: Intraperitoneal injection was adopted at a drug dose of 10 mg/kg/d, drugs were dissolved in a phosphate buffer solution (PBS) and administered twice a day in the morning and the evening, and a placebo group was given a phosphate buffer solution (PBS) of a same volume.
After continuous feeding, modeling and administration for 4 weeks, indicators, such as body weight, of mice were measured before sampling, then the mice were deeply anesthetized with isoflurane, and the mice were sacrificed after completely losing the sense of pain. Hearts were obtained after the mice were sacrificed, and indicators, such as heart weight, were measured.
In histological analysis, the hearts of the mice were collected, cut along maximum cross sections, and fixed with 4% paraformaldehyde. Subsequently, paraffin embedding, sectioning and hematoxylin-eosin (HE) staining of the maximum cross sections were performed. […] The sections were scanned by a scanner (3DHISTECH), and obtained and measured through software slideviewer.

HCM-iPSC-CMs = test: Patch clamp action potential of iPSC-CMs; assay type: cell-based, human; settings: 30 μM, 48 hours, compared with DNJ-1, FIG. 21
Experimental: TrypLE was added into induced cardiomyocytes, and after digestion at 37° C. for 3 min, an RPMI complete culture medium was added. The cells were centrifuged at a low speed, resuspended with RPMI/B27, and inoculated into an 8 mm Matrigel-coated slide at a ratio of 1:10. The cells were placed in an environment with 5% of CO2 for culture at 37° C. At 16 hours after the inoculation, the culture medium was replaced with a fresh RPMI/B27 culture medium, 30 μM small molecule drugs were added in an experimental group, and DMSO of an equal volume was added in a control group. At 48 hours after the culture, the action potential of the cardiomyocytes was recorded. Cell slides were removed, placed in a constant-temperature patch clamp bath at 37° C., and continuously perfused and rinsed with an extracellular fluid. Cell membranes of the cardiomyocytes were sucked and broken at a negative pressure, and the action potential of the cells capable of spontaneously pulsating was recorded. Data were collected and analyzed through Patch Master (HEKA), Fit Master (HEKA), Igor Pro (Wavemetrics) and Origin 6.1 (Microcal) software.

[2] = tested on: C57BL/6J mice with Ang II-induced myocardial hypertrophy; test: Transmission electron microscopy of mitochondria in mouse heart tissue; assay type: in vivo; settings: 10 mg/kg/d intraperitoneal, 4 weeks, TEM, FIG. 24
Experimental: as §1, §2
After mice were sacrificed, a small portion of left ventricular tissues were taken, and cardiac muscles were trimmed to achieve cubes with a size of 1 mm^3. According to arrangement directions of mitochondria in the cardiac muscle tissues, tissues were selected respectively along long axes and short axes of hearts, and samples for transmission electron microscopy were prepared subsequently. […]

[3] = tested on: C57BL/6J mice with Ang II-induced myocardial hypertrophy; test: Cardiac ultrasonography of mice with Ang II-induced myocardial hypertrophy; assay type: in vivo, mouse; settings: 10 mg/kg/d intraperitoneal, 4 weeks, FIG. 22
Experimental: as §1
Model construction: Weighing and anesthetization were performed, and skin preparation and disinfection were performed in surgical areas. A 1 cm incision above a scapula of a front leg was made by using surgical scissors, wherein the incision was perpendicular to a tail part. The skin was cut carefully without damaging underlying tissues, a subcutaneous tunnel was made under the skin by using hemostatic forceps, the pump with a regulator head was completely pushed into a pocket (pointing toward a tail end of each mouse), and the incision was sutured. […]
In the experiment, a Vinno 6LAB high-resolution ultrasonic detector for small animals was used for detection in a two-dimensional (2D) parasternal short-axis M mode. […] Each indicator was detected for 3-6 cardiac cycles, and a mean value of the measured cardiac cycles was calculated.

## CC(C)(C)C(=O)OC[C@H]1NC[C@H](O)[C@@H](O)[C@@H]1O [DNJ-5a, ((2R,3R,4R,5S)-3,4,5-trihydroxypiperidin-2-yl)methyl pivalate]
[1]
  heart weight/body weight: better performance
HCM-iPSC-CMs
  proportion of electrophysiologically abnormal cells (action potential): improve the proportion of electrophysiologically abnormal cells in HCM-iPSC-CMs more significantly
[2]
  mitochondrial ultrastructure of heart tissue (crista, vacuolation proportion): more significantly improve the ultrastructure of the mitochondrial crista and decrease a vacuolation proportion
[3]
  cardiac ultrasonography parameters (EF, FS, LVPWd, LVPWs): better performance
